Columns and labels:
Human LPA1 = molecular target: T1, Human LPA1 (Homo sapiens, UniProt Q92633); test: LPA1 calcium flux assay; type: cell-based; conditions: CHO cells expressing human LPA1, 10 nM LPA; read-out: HLPA1 Ca Flux IC50
T1 construct: the full-length cDNA for human LPA1 was obtained by PCR of the reverse transcription reaction; expressed in transfected cells
Procedure: A 1.1 kb cDNA encoding the human LPA1 receptor was cloned from human lung. Human lung RNA (Clontech Laboratories, Inc. USA) was reverse transcribed using the RETROscript kit (Ambion, Inc.) and the full-length cDNA for human LPA1 was obtained by PCR of the reverse transcription reaction. The nucleotide sequence of the cloned human LPA1 was determined by sequencing and confirmed to be identical to the published human LPA1 sequence (An et al. Biochem. Biophys. Res. Commun. 231:619 (1997). The cDNA was cloned into the pcDNA5/FRT expression plasmid and transfected in CHO cells using lipofectamine 2000 (Invitrogen Corp., USA). Clones stably expressing human LPA1 were selected using hygromycin and identified as cells that show Ca-influx in response to LPA.
(§1) Human LPA1 or LPA3 expressing CHO cells are seeded at 20,000-45,000 cells per well in a 96-well poly-D-lysine coated plate one or two days before the assay. Prior to the assay, the cells are washed once with PBS and then cultured in serum-free media overnight. On the day of the assay, a calcium indicator dye (Calcium 4, Molecular Devices) in assay buffer (HBSS with Ca^2+and Mg^2+ and containing 20 mM Hepes and 0.3% fatty-acid free human serum albumin) is added to each well and incubation continued for 1 hour at 37° C. 10 μl of test compounds in 2.5% DMSO are added to the cells and incubation continued at room temperature for 30 minutes. Cells are the stimulated by the addition of 10 nM LPA and intracellular Ca^2+ measured using the Flexstation 3 (Molecular Devices). IC50s are determined using Graphpad prism analysis of drug titration curves.

Human LPA3 = molecular target: T2, Human LPA3 (Homo sapiens, UniProt Q9UBY5); test: LPA3 calcium flux assay; type: cell-based; conditions: CHO cells expressing human LPA3, 10 nM LPA; read-out: HLPA3 Ca Flux IC50
T2 construct: The full-length cDNA fragment for human LPA3 was obtained by PCR from the vector; expressed in transfected cells; cDNA from the Missouri S&T cDNA Resource Center
T2 sequence (Q9UBY5 1-353): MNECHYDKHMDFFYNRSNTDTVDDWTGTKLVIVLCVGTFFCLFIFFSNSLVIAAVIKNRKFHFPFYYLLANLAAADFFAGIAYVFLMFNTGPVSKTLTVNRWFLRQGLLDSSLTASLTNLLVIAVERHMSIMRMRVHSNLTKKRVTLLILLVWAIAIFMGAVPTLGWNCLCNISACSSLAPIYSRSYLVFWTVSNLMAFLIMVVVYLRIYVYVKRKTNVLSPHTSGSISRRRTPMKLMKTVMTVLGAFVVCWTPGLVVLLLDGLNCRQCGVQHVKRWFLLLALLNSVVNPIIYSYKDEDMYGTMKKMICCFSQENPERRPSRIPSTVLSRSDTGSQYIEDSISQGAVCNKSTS
Procedure: A vector containing the human LPA3 receptor cDNA was obtained from the Missouri S&T cDNA Resource Center (www.cdna.org). The full-length cDNA fragment for human LPA3 was obtained by PCR from the vector. The nucleotide sequence of the cloned human LPA3 was determined by sequencing and confirmed to be identical to the published human LPA3 sequence (NCBI accession number NM_012152). The cDNA was cloned into the pcDNA5/FRT expression plasmid and transfected in CHO cells using lipofectamine 2000 (Invitrogen Corp., USA). Clones stably expressing human LPA3 were selected using hygromycin and identified as cells that show Ca-influx in response to LPA.
as §1

T1 sequence (Q92633 whole entry): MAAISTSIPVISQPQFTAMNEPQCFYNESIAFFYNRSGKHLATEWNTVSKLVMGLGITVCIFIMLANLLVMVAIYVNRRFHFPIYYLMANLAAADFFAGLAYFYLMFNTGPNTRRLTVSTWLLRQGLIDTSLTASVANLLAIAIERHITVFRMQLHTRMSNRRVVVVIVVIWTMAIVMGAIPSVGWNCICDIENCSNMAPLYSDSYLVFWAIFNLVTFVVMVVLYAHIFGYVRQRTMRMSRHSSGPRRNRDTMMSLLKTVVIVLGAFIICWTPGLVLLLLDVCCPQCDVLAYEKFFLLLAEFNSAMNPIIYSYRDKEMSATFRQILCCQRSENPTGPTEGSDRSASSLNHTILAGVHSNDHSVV

SMILES | IC50 (Human LPA1) | IC50 (Human LPA3)
Cc1noc(-c2ccc(-c3ccc(C4(C(=O)O)CC4)cc3)cc2)c1NC(=O)OC(C)c1ccccc1 (racemic) [Compound 34, 1-{4′-[3-Methyl-4-(1-phenyl-ethoxycarbonylamino)-isoxazol-5-yl]-biphenyl-4-yl}-cyclopropanecarboxylic acid] | < 300 nM | 1000 to 10000 nM
Cc1noc(-c2ccc(-c3ccc(C4(C(=O)O)CC4)cc3)cc2)c1NC(=O)O[C@@H](C)C1CC1 (single isomer, unassigned) [Compound 5] | 1000 to 10000 nM | 
Cc1noc(-c2ccc(-c3ccc(C4(C(=O)O)CC4)cc3)cc2)c1NC(=O)O[C@H](C)C1CC1 (single isomer, unassigned) [Compound 6] | < 300 nM | > 10000 nM
Cc1noc(-c2ccc(-c3ccc(C4(C(=O)O)CC4)cc3)cc2)c1NC(=O)OC(C)c1ccc(C(F)(F)F)cc1 (single isomer, unassigned) [Compound 13, 1-(4′-{3-Methyl-4-[1-(4-trifluoromethyl-phenyl)-ethoxycarbonylamino]-isoxazol-5-yl}-biphenyl-4-yl)-cyclopropanecarboxylic acid] | 1000 to 10000 nM | 
Cc1noc(-c2ccc(-c3ccc(C4(C(=O)O)CC4)cc3)cc2)c1NC(=O)OC(C)c1ccc(C(F)(F)F)cc1 (single isomer, unassigned) [Compound 14, 1-(4′-{3-Methyl-4-[1-(4-trifluoromethyl-phenyl)-ethoxycarbonylamino]-isoxazol-5-yl}-biphenyl-4-yl)-cyclopropanecarboxylic acid] | < 300 nM | 1000 to 10000 nM
Cc1noc(-c2ccc(-c3ccc(C4(C(=O)O)CC4)cc3)cc2)c1NC(=O)OC(C)C1CCCCC1 (centres unmarked) [Compound 2, 1-{4′-[4-(1-Cyclohexyl-ethoxycarbonylamino)-3-methyl-isoxazol-5-yl]-biphenyl-4-yl}-cyclopropanecarboxylic acid] | < 300 nM | 1000 to 10000 nM
Cc1ccccc1[C@@H](C)OC(=O)Nc1c(C)noc1-c1ccc(-c2ccc(C3(C(=O)O)CC3)cc2)cc1 [Compound 3, 1-{4′-[3-Methyl-4-((R)-1-o-tolyl-ethoxycarbonylamino)-isoxazol-5-yl]-biphenyl-4-yl}-cyclopropanecarboxylic acid] | < 300 nM | 300 to 1000 nM
Cc1noc(-c2ccc(-c3ccc(C4(C(=O)O)CC4)cc3)cc2)c1NC(=O)OCC1CC1 [Compound 7, 1-[4′-(4-Cyclopropylmethoxycarbonylamino-3-methyl-isoxazol-5-yl)-biphenyl-4-yl]-cyclopropanecarboxylic acid] | < 300 nM | > 10000 nM
Cc1noc(-c2ccc(-c3ccc(C4(C(=O)O)CC4)cc3)cc2)c1NC(=O)O[C@H](C)c1ccccc1C(F)(F)F [Compound 9, 1-(4′-{3-Methyl-4-[(R)-1-(2-trifluoromethyl-phenyl)-ethoxycarbonylamino]-isoxazol-5-yl}-biphenyl-4-yl)-cyclopropanecarboxylic acid] | < 300 nM | 1000 to 10000 nM
Cc1noc(-c2ccc(-c3ccc(C4(C(=O)O)CCC4)cc3)cc2)c1NC(=O)O[C@H](C)c1ccccc1 [Compound 10, 1-{4′-[3-Methyl-4-((R)-1-phenyl-ethoxycarbonylamino)-isoxazol-5-yl]-biphenyl-4-yl}-cyclobutanecarboxylic acid] | < 300 nM | 1000 to 10000 nM
Cc1noc(-c2ccc(-c3ccc(C4(C(=O)O)CCCC4)cc3)cc2)c1NC(=O)O[C@H](C)c1ccccc1 [Compound 11, 1-{4′-[3-Methyl-4-((R)-1-phenyl-ethoxycarbonylamino)-isoxazol-5-yl]-biphenyl-4-yl}-cyclopentanecarboxylic acid] | < 300 nM | 1000 to 10000 nM
COc1ccccc1C(C)OC(=O)Nc1c(C)noc1-c1ccc(-c2ccc(C3(C(=O)O)CC3)cc2)cc1 (centres unmarked) [Compound 12, 1-(4′-{4-[1-(2-Methoxy-phenyl)-ethoxycarbonylamino]-3-methyl-isoxazol-5-yl}-biphenyl-4-yl)-cyclopropanecarboxylic acid] | < 300 nM | 
Cc1noc(-c2ccc(-c3ccc(C4(C(=O)O)CC4)cc3)cc2)c1NC(=O)OC(C)c1cccc(C#N)c1 (centres unmarked) [Compound 15, 1-(4′-{4-[1-(3-Cyano-phenyl)-ethoxycarbonylamino]-3-methyl-isoxazol-5-yl}-biphenyl-4-yl)-cyclopropanecarboxylic acid] | < 300 nM | 1000 to 10000 nM
Cc1noc(-c2ccc(-c3ccc(C4(C(=O)O)CC4)cc3)cc2)c1NC(=O)O[C@H](C)c1ccc(C#N)cc1 [Compound 18, 1-(4′-{4-[(R)-1-(4-Cyano-phenyl)-ethoxycarbonylamino]-3-methyl-isoxazol-5-yl}-biphenyl-4-yl)-cyclopropanecarboxylic acid] | < 300 nM | 1000 to 10000 nM
Cc1noc(-c2ccc(-c3ccc(C4(C(=O)O)CC4)cc3)cc2)c1NC(=O)O[C@H](C)C1CCC1 [Compound 20, 1-{4′-[4-((R)-1-Cyclobutyl-ethoxycarbonylamino)-3-methyl-isoxazol-5-yl]-biphenyl-4-yl}-cyclopropanecarboxylic acid] | < 300 nM | 1000 to 10000 nM
Cc1noc(-c2ccc(-c3ccc(C4(C(=O)O)CC4)cc3)cc2)c1NC(=O)O[C@H](C)c1cccc(C(F)(F)F)c1 [Compound 22, 1-(4′-{3-Methyl-4-[(R)-1-(3-trifluoromethyl-phenyl)-ethoxycarbonylamino]-isoxazol-5-yl}-biphenyl-4-yl)-cyclopropanecarboxylic acid] | < 300 nM | < 300 nM
COc1cccc([C@@H](C)OC(=O)Nc2c(C)noc2-c2ccc(-c3ccc(C4(C(=O)O)CC4)cc3)cc2)c1 [Compound 23, 1-(4′-{4-[(R)-1-(3-Methoxy-phenyl)-ethoxycarbonylamino]-3-methyl-isoxazol-5-yl}-biphenyl-4-yl)-cyclopropanecarboxylic acid] | < 300 nM | 1000 to 10000 nM
COc1ccc([C@@H](C)OC(=O)Nc2c(C)noc2-c2ccc(-c3ccc(C4(C(=O)O)CC4)cc3)cc2)cc1 [Compound 24, 1-(4′-{4-[(R)-1-(4-Methoxy-phenyl)-ethoxycarbonylamino]-3-methyl-isoxazol-5-yl}-biphenyl-4-yl)-cyclopropanecarboxylic acid] | < 300 nM | > 10000 nM
Cc1noc(-c2ccc(-c3ccc(C4(C(=O)O)CC4)cc3)cc2)c1NC(=O)OC(C)c1cccc(Br)c1 (centres unmarked) [Compound 25, 1-(4′-{4-[1-(3-Bromo-phenyl)-ethoxycarbonylamino]-3-methyl-isoxazol-5-yl}-biphenyl-4-yl)-cyclopropanecarboxylic acid] | < 300 nM | 300 to 1000 nM
Cc1noc(-c2ccc(-c3ccc(C4(C(=O)O)CC4)cc3)cc2)c1NC(=O)OC(C)c1cccc(Cl)c1 (centres unmarked) [Compound 26, 1-(4′-{4-[1-(3-Chloro-phenyl)-ethoxycarbonylamino]-3-methyl-isoxazol-5-yl}-biphenyl-4-yl)-cyclopropanecarboxylic acid] | < 300 nM | 300 to 1000 nM
Cc1noc(-c2ccc(-c3ccc(C4(C(=O)O)CC4)cc3)cc2)c1NC(=O)O[C@@H](C)c1ccccc1 [Compound 27, 1-{4′-[3-Methyl-4-((S)-1-phenyl-ethoxycarbonylamino)-isoxazol-5-yl]-biphenyl-4-yl}-cyclopropanecarboxylic acid] | < 300 nM | > 10000 nM
Cc1noc(-c2ccc(-c3ccc(C4(C(=O)O)CC4)cc3)cc2)c1NC(=O)OC(C)c1cccc(O)c1 (centres unmarked) [Compound 28, 1-(4′-{4-[1-(3-Hydroxy-phenyl)-ethoxycarbonylamino]-3-methyl-isoxazol-5-yl}-biphenyl-4-yl)-cyclopropanecarboxylic acid] | < 300 nM | > 10000 nM

Reference: patent US8273780B2, “Polycyclic antagonists of lysophosphatidic acid receptors” (Amira Pharmaceuticals, Inc., priority 2009, dated 2012)
